The conditions of series [1]: under varying conditions; cited from earlier work.
In series [2] the test system is Candida albicans. To be noted: reported in Journal of Natural Products, Vol. 50, No. 5, pp. 961-964, 1987; cited from earlier work.
A further series relates to Candida albicans 10231. Description: Minimum inhibitory concentration (MIC), twofold serial broth dilution assay, Candida albicans ATCC 10231. Type of series: cell-based. The conditions noted are these: ATCC10231, 24 and 48 hours at 37°. On the procedure: (§1) The method used to determine the minimum inhibitory concentration (MIC) of the inventive compound was a twofold serial broth dilution assay in yeast nitrogen broth. In addition to Candida albicans B311, the MIC values for onychine were also determined for two additional strains of Candida albicans: ATCC 10231 and a clinical isolate, designated WH. Also tested were Mycobacterium smegmatis 607, Bacillus subtilis, 6633, Cryptococcus neoformans 32264, Aspergillus flavus 9170, Aspergillus fumigatus 26934, and Trichophyton mentagrophytes 9972. The inventive compound was initally tested using a concentration of 100 μg/ml in the first tube. The compound was added to sterile Sabourauddextrose broth as a solution in DMSO. The inoculum for the MIC determination was prepared as described for qualitative evaluation. Using a calibrated sterile wire loop, 10μl of the 10^6 CFU/ml suspension of Candida albicans was used as inoculum for each tube. The MIC value was taken as the lowest concentration of compound that inhibited the growth of the test organisms after 24 and 48 hours of incubation at 37°. The antifungal agents amphotericin-B and ketoconazole were included as standards in each screen. The results of the MIC testing for various pathogenic agents is set out in Table I.
In general terms: In broth dilution the organism is exposed to a series of concentrations in liquid medium.

In series [3] the test system is Candida albicans. The experiment in a line: Anticandidal activity, agar-well diffusion assay (zone of inhibition). The series is classed as cell-based. To be noted: three test strains of Candida albicans; pure compounds at 1 mg/ml; 37° for 24 hours. As to the method:
In vitro evaluation of the anticandidal activity of the inventive compound and compositions was carried out using the agar-well diffusion assay as follows:
Candida albicans NIH B311 used to induce experimental disseminated candidiasis was used for the initial qualitative evaluation of anticandidal activity. The organism was grown in Sabouraud-dextrose broth (SDB) for 14 hours at 37°, at which time the cells were harvested by centrifugation (4°, 2000 rpm, 3 min). After centrifugation, the cells were washed and suspended in sterile 0.9% saline to give a final concentration of 10^6 colony forming units (CFU) per ml (adjusted using a hemocytometer). Culture plates (15×100 mm) for the qualitative assay were prepared from 25 ml of Sabouraud-dextrose agar. Using sterile cotton swabs, the plates were streaked with the suspension (10^6 CFU/ml) of Candida albicans B311. Cylindrical plugs were removed from the agar plates by means of a sterile cork borer to produce wells with a diameter of approximately 11 mm. To the well was added 100 μl of solution or suspension of an extract, fraction, or pure compound. Crude extracts and fractions were tested at a concentration of 20 mg/ml, whereas pure compounds were tested at 1 mg/ml. […] Anticandidal activity was recorded as the width (in mm) of the zone of inhibition following incubation of the plates at 37° for 24 hours. […]
(In agar diffusion tests the substance spreads into inoculated agar from a disc or well.)

The subject of the next series is Candida albicans B311. Description: Minimum inhibitory concentration (MIC), twofold serial broth dilution assay, Candida albicans B311. The series is classed as cell-based. The conditions noted are these: yeast nitrogen broth, 24 and 48 hours at 37°. As to the method: as §1
Series [4] relates to Candida albicans. The experiment in a line: In vivo disseminated Candida albicans infection in mice, CFU recovered from the kidneys. To be noted: for % Reduction: kidney CFU versus vehicle control; for CFU/g × 10^6 (range): kidney. Details: species or system outbred mice. As to the method:
In the in vivo testing of the invention onychine, outbred mice were used. A disseminated infection of Candida albicans in the test animals was achieved by intravenous injection of 10^6 CFU of the pathogen. The organism is rapidly cleared from the blood and most tissues, except the kidney which is the primary target organ for the disseminated infection in mice. It is known than an inoculum of 10^6 CFU will produce a disseminated infection in outbred mice within […]. Onychine was administered to infected mice by intraperitoneal injection 7 hrs post-inoculation. The vehicle used for administering the compound of the invention was a mixture consisting of 50% USP water, 40% propylene glycol and 10% absolute ethonol.

The test system of another series is Candida albicans WH. Description: Minimum inhibitory concentration (MIC), twofold serial broth dilution assay, Candida albicans WH (clinical isolate). The conditions noted are these: 24 and 48 hours at 37°. Type of series: cell-based. As to the method:
as §1

Each structure is given as a SMILES string. ≈ marks a conversion by molar mass, not a printed value.

Regarding `CC1C=CC=CC=CC=CC=CC=CC=CC(OC2OC(C)C(O)C(N)C2O)CC2OC(O)(CC(O)CC(O)C(O)CCC(O)CC(O)CC(=O)OC(C)C(C)C1O)CC(O)C2C(=O)O` (centres unmarked) [amphotericin-B], the “side effects in humans” value in series [1] is “fever, anorexia, nausea and vomiting, diarrhea, muscle and joint pain, phlebitis and thiophlebitis, anemia, abnormal renal function, anuria, cardiovascular distress, hypertension and hypotension”.

As to `c1ccc2c(c1)-c1nccc3ccnc-2c13` [eupolauridine], in the series with Candida albicans [2], the anticandidal properties entry is given as “possibly remarkable anticandidal properties”.

The MIC is the lowest concentration found to suppress growth. As for `Cc1ccnc2c1C(=O)c1ccccc1-2` [Onychine, 1-methyl-4-azafluoren-9-one], the values for the MIC in the series on Candida albicans 10231, with Candida albicans B311 and against Candida albicans WH were 1.56 µg/mL (≈ 7.99 µM), 3.12 µg/mL (≈ 16 µM) and 25 µg/mL (≈ 128 µM), respectively. For the same compound, the zone of inhibition result with Candida albicans [3] is “remarkable zone of inhibition”. Further, in the series on Candida albicans [4] (0.1 mg/kg intraperitoneal 7 hrs post-inoculation), the “number of CFU of Candida albicans recovered from the kidneys versus vehicle treated control mice” value is recorded as “significantly lower”. For the same compound, the “% Reduction” value with Candida albicans [4] (0.1 mg/kg intraperitoneal, n=8, P 0.047) amounted to 95.5%; in the series on Candida albicans [4] (0.5 mg/kg intraperitoneal, n=7, P 0.082) it was 86.7%. The “CFU/g × 10^6 (range)” value in the series with Candida albicans [4] (0.1 mg/kg intraperitoneal 7 hrs post-inoculation, n=8, range 0.05-0.3, P 0.047) amounted to 0.17 CFU/g × 10^6; with Candida albicans [4] (0.5 mg/kg intraperitoneal 7 hrs post-inoculation, n=7, range 0.11-1.05, P 0.082) it was 0.50 CFU/g × 10^6.

Values taken from patent US4873250A, “Antimicrobial compound and compositions particulary effective against candida albicans” (The University of Mississippi, priority 1988, dated 1989).
